These results are taken from patent US8686156B2, “Thiazole derivatives as pesticides” (priority 2010, dated 2014).

Series [1] in a line: logP determination by HPLC (formic acid method). It counts as physicochemical. The settings on record: reversed-phase HPLC column (C18), reversed-phase column (C 18), 55° C., acidic range (pH 3.4), read-out: log P(HCOOH). As to the method:
1) Description of the Method for Determining the logP Values (Formic Acid Method) The logP values were determined in accordance with EEC Directive 79/831 Annex V.A8 by HPLC (High Performance Liquid Chromatography) using a reversed-phase column (C 18). Temperature: 55° C. Mobile phases for determination in the acidic range (pH 3.4): Mobile phase A: acetonitrile+1 ml of formic acid/litre. Mobile phase B: water+0.9 ml of formic acid/litre. Gradient: 10% mobile phase A/90% mobile phase B to 95% mobile phase A/5% mobile phase B over 4.25 min. Calibration was carried out using unbranched alkan-2-ones (having from 3 to 16 carbon atoms) with known logP values (the logP values were determined by the retention times using linear interpolation between two successive alkanones). The lambda max values were determined in the maxima of the chromatographic signals using the UV spectra from 200 nm to 400 nm.

Series [2] has as its system green peach aphid (Myzus persicae). As to the kind of experiment: Myzus test, spray treatment. Particulars: application rate of 500 g/ha; spray treatment of Chinese cabbage discs; after 6 days. It counts as in vivo. Here is the method:
Myzus Test Spray Treatment Solvent: 78 parts by weight of acetone • • 1.5 parts by weight of dimethylformamide Emulsifier: 0.5 part by weight of alkylaryl polyglycol ether To produce a suitable preparation of active compound, 1 part by weight of active compound is mixed with the stated amounts of solvent and emulsifier, and the concentrate is diluted with emulsifier-containing water to the desired concentration. Discs of Chinese cabbage (Brassica pekinensis) infected by all stages of the green peach aphid (Myzus persicae) are sprayed with an active compound preparation of the desired concentration. After 6 days, the effect in % is determined. 100% means that all of the aphids have been killed; 0% means that none of the aphids have been killed.

Take `Fc1nc(-c2cccnc2)sc1-c1cccc(-c2ncccn2)n1` [Example 1, 2-[6-(4-Fluoro-2-pyridin-3-ylthiazol-5-yl)pyridin-2-yl]pyrimidine]: the chromatographic logP in series [1] amounted to 2.15. Also, in series [2], the “effect in % (100% means that all of the aphids have been killed)” value came to 100%.
`Clc1cnc(-c2cccc(-c3sc(-c4cccnc4)nc3Cl)n2)nc1` [5-Chloro-2-{6-[4-chloro-2-(pyridin-3-yl)-1,3-thiazol-5-yl]pyridin-2-yl}pyrimidine]: the chromatographic logP in series [1] is 3.27.
On the same count and under the same terms, under `Clc1nc(-c2cccnc2)sc1-c1cccc(-c2ncccn2)n1` [2-{6-[4-Chloro-2-(pyridin-3-yl)-1,3-thiazol-5-yl]pyridin-2-yl}pyrimidine] stands 2.27.
